Earlier results on three substances are cited in publication PMC4198065 (ACS Chemical Neuroscience, 2014).

The subject of series [1] is food intake in mice. To be noted: effect lasting up to 24 h.
Series [2] concerns food consumption and body weight in rats. To be noted: ICV.

Regarding “AGRP: endogenous antagonist of the MC3R and MC4R (SSRRCVRLHESCLGQQVPCCDPCATCYCRFFNAFCYCRKLGTAMNPCSRT; UniProt O00253 83-132, looked up)”, the “food intake after central administration” value in series [1] is reported as “robustly increased food intake”.
Regarding “Ac-RRWWRF-NH2 [AST789-13, Ac-RRWWRF-NH2]”, the “half-life in human serum” value is recorded as 1.5 h.
In the case of “Ac-Nle-c[Asp-His-DPhe-Arg-Trp-Lys]-NH2 (sidechain bridge or staple) [MTII]”, the “48 h food consumption” value in series [2] (1.0 nmol dose) is “reduced 48 h food consumption”. In series [2] (at 24 and 48 h (0.1 and 1.0 nmol doses, respectively)), the “body weight post treatment” value is “reduced body weight at 24 and 48 h”.
